These are literature values, as cited in patent EP0349956A1, “Azacyclic compounds and their preparation und use” (NOVO NORDISK A/S, priority 1988, dated 1990).

The data set concerns the target muscarinic receptor in the CNS.

pKd: −log10 of the molar value. Like-named read-outs stand apart in the source and are kept apart here.

For ³H-Oxotremorine-M, the pKd (first of three different sites labelled by ³H-Oxo (high affinity)) was 8.74; the pKd (second of three different sites labelled by ³H-Oxo (medium affinity)) was 7.70; the pKd (third of three different sites labelled by ³H-Oxo (not determined under the present conditions), read-out: affinity) was 5.52.
